Laboratory results as given in ChEMBL document CHEMBL4000214, “Lycopene pretreatment improves hepatotoxicity induced by acetaminophen in C57BL/6 mice” (2017).
The source made the active and inactive calls. No cut-off for these calls is given here.

Experiments:
Mus musculus [1] = test: Hepatoprotective activity against APAP overdose-induced liver injury in C57BL/6 mouse assessed as serum ALT level at 10 mg/kg, po pretreated via gavage for 14 consecutive days followed by APAP treatment 1 hr post last dose on day 14 measured 12 hrs post APAP treatment by spectrophotometric method (reference value: 166 +/- 1.7 IU); format: functional
Mus musculus [2] = test: Hepatoprotective activity against APAP overdose-induced liver injury in C57BL/6 mouse assessed as serum ALT level at 100 mg/kg, po pretreated via gavage for 14 consecutive days followed by APAP treatment 1 hr post last dose on day 14 measured 12 hrs post APAP treatment by spectrophotometric method (reference value: 166 +/- 1.7 IU); format: functional
Mus musculus [3] = test: Hepatoprotective activity against APAP overdose-induced liver injury in C57BL/6 mouse assessed as serum AST level at 10 mg/kg, po pretreated via gavage for 14 consecutive days followed by APAP treatment 1 hr post last dose on day 14 measured 12 hrs post APAP treatment by spectrophotometric method (reference value: 143.8 +/- 2.5 IU); format: functional
Mus musculus [4] = test: Hepatoprotective activity against APAP overdose-induced liver injury in C57BL/6 mouse assessed as serum AST level at 100 mg/kg, po pretreated via gavage for 14 consecutive days followed by APAP treatment 1 hr post last dose on day 14 measured 12 hrs post APAP treatment by spectrophotometric method (reference value: 143.8 +/- 2.5 IU); format: functional
Mus musculus [5] = test: Hepatoprotective activity against APAP overdose-induced liver injury in C57BL/6 mouse assessed as total cholesterol level in serum at 10 mg/kg, po pretreated via gavage for 14 consecutive days followed by APAP treatment 1 hr post last dose on day 14 measured 12 hrs post APAP treatment by spectrophotometric method (reference value: 42.2 +/- 3.5 mg/dl); format: functional
Mus musculus [6] = test: Hepatoprotective activity against APAP overdose-induced liver injury in C57BL/6 mouse assessed as total cholesterol level in serum at 100 mg/kg, po pretreated via gavage for 14 consecutive days followed by APAP treatment 1 hr post last dose on day 14 measured 12 hrs post APAP treatment by spectrophotometric method (reference value: 42.2 +/- 3.5 mg/dl); format: functional
Mus musculus [7] = test: Hepatoprotective activity against APAP overdose-induced liver injury in C57BL/6 mouse assessed as HDL level in serum at 10 mg/kg, po pretreated via gavage for 14 consecutive days followed by APAP treatment 1 hr post last dose on day 14 measured 12 hrs post APAP treatment by spectrophotometric method (reference value: 10.8 +/- 0.6 mg/dl); format: functional
Mus musculus [8] = test: Hepatoprotective activity against APAP overdose-induced liver injury in C57BL/6 mouse assessed as HDL level in serum at 100 mg/kg, po pretreated via gavage for 14 consecutive days followed by APAP treatment 1 hr post last dose on day 14 measured 12 hrs post APAP treatment by spectrophotometric method (reference value: 10.8 +/- 0.6 mg/dl); format: functional
Mus musculus [9] = test: Hepatoprotective activity against APAP overdose-induced liver injury in C57BL/6 mouse assessed as atherogenic fraction in serum at 10 mg/kg, po pretreated via gavage for 14 consecutive days followed by APAP treatment 1 hr post last dose on day 14 measured 12 hrs post APAP treatment by spectrophotometric method (reference value: 28.8 +/- 2.6 mg/dl); format: functional
Mus musculus [10] = test: Hepatoprotective activity against APAP overdose-induced liver injury in C57BL/6 mouse assessed as atherogenic fraction in serum at 100 mg/kg, po pretreated via gavage for 14 consecutive days followed by APAP treatment 1 hr post last dose on day 14 measured 12 hrs post APAP treatment by spectrophotometric method (reference value: 28.8 +/- 2.6 mg/dl); format: functional
Mus musculus [11] = test: Hepatoprotective activity against APAP overdose-induced oxidative damage in C57BL/6 mouse assessed as decrease in lipid peroxidation in liver at 10 to 100 mg/kg, po pretreated via gavage for 14 consecutive days followed by APAP treatment 1 hr post last dose on day 14 measured 12 hrs post APAP treatment by TBARS assay; format: functional, organism-based
Mus musculus [12] = test: Hepatoprotective activity against APAP overdose-induced oxidative damage in po dosed C57BL/6 mouse assessed as decrease in carbonylated protein content in liver pretreated via gavage for 14 consecutive days followed by APAP treatment 1 hr post last dose on day 14 measured 12 hrs post APAP treatment by spectrophotometric method; format: functional, organism-based
Mus musculus [13] = test: Hepatoprotective activity against APAP overdose-induced oxidative damage in C57BL/6 mouse assessed as restoration of APAP-induced loss in SOD activity in liver by measuring SOD ability to dismutase superoxide anion at 10 to 100 mg/kg, po pretreated via gavage for 14 consecutive days followed by APAP treatment 1 hr post last dose on day 14 measured 12 hrs post APAP treatment by spectrophotometric method; format: functional, organism-based
Mus musculus [14] = test: Hepatoprotective activity against APAP overdose-induced oxidative damage in C57BL/6 mouse assessed as restoration of APAP-induced loss in catalase activity in liver by measuring decrease in hydrogen peroxide level at 10 to 100 mg/kg, po pretreated via gavage for 14 consecutive days followed by APAP treatment 1 hr post last dose on day 14 measured 12 hrs post APAP treatment by spectrophotometric method; format: functional, organism-based
Mus musculus [15] = test: Hepatoprotective activity against APAP overdose-induced oxidative damage in C57BL/6 mouse assessed as increase in GSH level in liver at 10 to 100 mg/kg, po pretreated via gavage for 14 consecutive days followed by APAP treatment 1 hr post last dose on day 14 measured 12 hrs post APAP treatment by DTNB reagent based assay; format: functional, organism-based
Mus musculus [16] = test: Hepatoprotective activity against APAP overdose-induced oxidative damage in C57BL/6 mouse assessed as decrease in GSSG level in liver at 10 mg/kg, po pretreated via gavage for 14 consecutive days followed by APAP treatment 1 hr post last dose on day 14 measured 12 hrs post APAP treatment; format: functional, organism-based
Mus musculus [17] = test: Hepatoprotective activity against APAP overdose-induced oxidative damage in C57BL/6 mouse assessed as decrease in GSSG level in liver at 100 mg/kg, po pretreated via gavage for 14 consecutive days followed by APAP treatment 1 hr post last dose on day 14 measured 12 hrs post APAP treatment; format: functional, organism-based
Mus musculus [18] = test: Hepatoprotective activity against APAP overdose-induced oxidative damage in C57BL/6 mouse assessed as inhibition of APAP-induced decrease in total GSH level in liver at 10 to 100 mg/kg, po pretreated via gavage for 14 consecutive days followed by APAP treatment 1 hr post last dose on day 14 measured 12 hrs post APAP treatment by DTNB reagent based assay; format: functional, organism-based
Mus musculus [19] = test: Hepatoprotective activity against APAP overdose-induced liver damage in C57BL/6 mouse assessed as serum IL-1beta mRNA level at 10 mg/kg, po pretreated via gavage for 14 consecutive days followed by APAP treatment 1 hr post last dose on day 14 measured 12 hrs post APAP treatment by RT-PCR method (reference value: 1.67 +/- 0.4); format: functional
Mus musculus [20] = test: Hepatoprotective activity against APAP overdose-induced liver damage in C57BL/6 mouse assessed as serum IL-6 mRNA level at 10 mg/kg, po pretreated via gavage for 14 consecutive days followed by APAP treatment 1 hr post last dose on day 14 measured 12 hrs post APAP treatment by RT-PCR method (reference value: 0.32 +/- 0.2); format: functional
Mus musculus [21] = test: Hepatoprotective activity against APAP overdose-induced liver damage in C57BL/6 mouse assessed as serum IL-10 mRNA level at 10 mg/kg, po pretreated via gavage for 14 consecutive days followed by APAP treatment 1 hr post last dose on day 14 measured 12 hrs post APAP treatment by RT-PCR method (reference value: 0.45 +/- 0.2); format: functional
Mus musculus [22] = test: Hepatoprotective activity against APAP overdose-induced liver damage in C57BL/6 mouse assessed as serum IL-1beta mRNA level at 100 mg/kg, po pretreated via gavage for 14 consecutive days followed by APAP treatment 1 hr post last dose on day 14 measured 12 hrs post APAP treatment by RT-PCR method (reference value: 1.67 +/- 0.4); format: functional
Mus musculus [23] = test: Hepatoprotective activity against APAP overdose-induced liver damage in C57BL/6 mouse assessed as serum IL-6 mRNA level at 100 mg/kg, po pretreated via gavage for 14 consecutive days followed by APAP treatment 1 hr post last dose on day 14 measured 12 hrs post APAP treatment by RT-PCR method (reference value: 0.32 +/- 0.2); format: functional
Mus musculus [24] = test: Hepatoprotective activity against APAP overdose-induced liver damage in C57BL/6 mouse assessed as serum IL-10 mRNA level at 100 mg/kg, po pretreated via gavage for 14 consecutive days followed by APAP treatment 1 hr post last dose on day 14 measured 12 hrs post APAP treatment by RT-PCR method (reference value: 0.45 +/- 0.2); format: functional
Mus musculus [25] = test: Hepatoprotective activity against APAP overdose-induced liver damage in C57BL/6 mouse assessed as decrease in APAP-induced MMP2 activity in liver at 10 to 100 mg/kg, po pretreated via gavage for 14 consecutive days followed by APAP treatment 1 hr post last dose on day 14 measured 12 hrs post APAP treatment by coomassie brilliant blue staining based gelatin zymography assay; format: functional, organism-based
Mus musculus [26] = test: Hepatoprotective activity against APAP overdose-induced liver damage in C57BL/6 mouse assessed as decrease in liver necrotic area at 10 mg/kg, po pretreated via gavage for 14 consecutive days followed by APAP treatment 1 hr post last dose on day 14 measured 12 hrs post APAP treatment by hematoxylin and eosin staining based assay; format: functional, organism-based
Mus musculus [27] = test: Hepatoprotective activity against APAP overdose-induced liver damage in C57BL/6 mouse assessed as decrease in liver necrotic area at 100 mg/kg, po pretreated via gavage for 14 consecutive days followed by APAP treatment 1 hr post last dose on day 14 measured 12 hrs post APAP treatment by hematoxylin and eosin staining based assay; format: functional, organism-based

## CC(C)=CCC/C(C)=C/C=C/C(C)=C/C=C/C(C)=C/C=C/C=C(C)/C=C/C=C(C)/C=C/C=C(\C)CCC=C(C)C [LYCOPENE]
Mus musculus [1]
  Activity: 161.7 IU
Mus musculus [2]
  Activity: 164.1 IU
Mus musculus [3]
  Activity: 139.6 IU
Mus musculus [4]
  Activity: 139.8 IU
Mus musculus [5]
  Activity: 41 mg/dL
Mus musculus [6]
  Activity: 58.2 mg/dL
Mus musculus [7]
  Activity: 9 mg/dL
Mus musculus [8]
  Activity: 17 mg/dL
Mus musculus [9]
  Activity: 30 mg/dL
Mus musculus [10]
  Activity: 41.1 mg/dL
Mus musculus [11]
  Activity: Active
Mus musculus [12]
  Activity: Dose-dependent effect
Mus musculus [13]
  Activity: inactive
Mus musculus [14]
  Activity: Active
Mus musculus [15]
  Activity: Active
Mus musculus [16]
  Activity: inactive
Mus musculus [17]
  Activity: Active
Mus musculus [18]
  Activity: Active
Mus musculus [19]
  Activity: 0.68
Mus musculus [20]
  Activity: 0.37
Mus musculus [21]
  Activity: 0.57
Mus musculus [22]
  Activity: 0.58
Mus musculus [23]
  Activity: 0.4
Mus musculus [24]
  Activity: 0.3
Mus musculus [25]
  Activity: Active
Mus musculus [26]
  Activity: inactive
Mus musculus [27]
  Activity: Active
